Patent US5723494A, “Derivatives of glutamic and aspartic acids, a method of preparing them, and their use as drugs for enhancing memory and learning” (priority 1993, dated 1998)

Key:
[1] = molecular target: excitor amino-acid receptors of cortical membranes ("forebrain") of rats; experiment: Inhibition of the specific binding of [3H]-glutamate to rat forebrain membranes; conditions: for IC50: rat forebrain membranes, 20 min, 37° C., pH 7.1
From the text: 6) Studies on binding to rat "forebrain" membranes
L-glutamate recognizes all three receptor subtypes indicated above, al though not selectively. It is therefore desirable to evaluate the capacity of each of the compounds of the invention to interact with the excitor amino-acid receptors of the CNS.
"Forebrain", that is, the cerebral cortex and the hippocampus, were selected as the receptor tissue and ^3 H-L-glutamate as the ligand for marking this heterogenous receptor population.
Rat cerebral tissue (forebrain without striated tissue) was therefore homogeneised cold in tris buffer at pH 7.4. After washing and centrifuging, the final pellet was resuspended in 50 volumes of tris HCl binding buffer at 7.1. 0.5 ml of receptor membrane thus obtained were then incubated, together with the radioactive tracer and the compounds under test, for 20 min at 37° C. The reaction was terminated by separating the bound radio-ligand from the free radio-ligand by filteration on glass-fibre filters which, after washing, were counted in a liquid scintillator (a β-counter) thus determining the radioactivity associated with the pellet. The specific binding was determined as the difference between the binding in the absence and in the presence of cold 3.6 mM L-glutamate.

[2] = Antidepressant activity in the behavioural despair test in the mouse; format: in vivo, mouse (male CD1); conditions: for inhibition in vivo at 3 mg/kg / inhibition in vivo at 10 mg/kg / inhibition in vivo at 30 mg/kg / inhibition in vivo at 1 mg/kg: 5 min, 5 minutes, read-out: Decrease in immobility (as %) vs the controls; for inhibition in vivo at 3 mg/kg: 3 mg/kg IP; for inhibition in vivo at 10 mg/kg: 10 mg/kg IP; for inhibition in vivo at 30 mg/kg: 30 mg/kg IP; for inhibition in vivo at 1 mg/kg: 1 mg/kg IP; for ED50: read-out: ED50 (dose antagonising immobility time by 50%)
From the text: 5) Antidepressant activity in the "behavioural despair test" Another interesting aspect of the pharmacological activity of these products is the potent antidepressant activity which some of them display in an experimental model in the mouse, in which a state of depression is induced experimentally by the method of Porsolt et al. (Arch. Int. Pharmacodyn. 229, p. 327-336 (1977)). Male CDl mice which weighed about 20-25 g and had not fasted were used. The test consisted of inducing a state of depression in the animal which was subjected to forced swimming in a glass cylinder from which it could not escape. After a short period of vigorous activity the mouse adopted a characteristic posture of immobility which was easily identifiable; this immobility is reduced by antidepressant drugs. 1 l glass beakers, filled to 700 ml with water at a temperature of 25° C. were used for the test. The mice, 8 per group, were treated intraperitoneally with the drug under test, 30 minutes before the test. At time 0, each animal was immersed in a beaker and, after one minute during which all moved about swimming vigorously in order to escape, regardless of treatment, the observer, who was unaware of the treatment, assigned the following points: 0=animal immobile 1=minimum movement to remain afloat 2=vigorous swimming The greater the antidepressant activity of the drug, the more the animals will move about in order to try to escape from the water. The points were assigned every 15 sec for a total period of 5 min with a total of 20 observations. The antidepressant activity was determined with the use of various doses of the compound by the regression method as the ED50, that is, the dose in mg/kg of the compound which could antagonise the animal's immobility time by 50%.

[3] = Antiamnesic activity in the mouse (step-down passive avoidance, amnesia induced by ECS); format: in vivo, mouse (CD1 male); conditions: mouse; for change in vivo at 3 mg/kg: 3 mg/kg OS; for change in vivo at 30 mg/kg: 30 mg/kg OS; for change in vivo at 10 mg/kg: 10 mg/kg OS
From the text: 1) Antiamnesic activity in the mouse (step-down passive avoidance)
An electroconvulsive shock (ECS) produces retrograde amnesia in the test animal if applied immediately after the training received, for example, a harmful stimulus of a suitable intensity.
The object of the experiment was to study the effects of the compounds of the invention in antagonizing the amnesic effect of an ECS on the short-term memory consolidation process.
CD1 male mice which weighed about 30-35 g, and had not fasted were used. The equipment used was a rectangular plexiglass cage (21×21×40cm) with an electrifiable grid floor and a wooden cube (4×4×4 cm) fixed in the centre of the cage. The animals were treated orally with the product under test 60 minutes before the training.
The mouse was placed delicately on the wooden cube and the time it took to descend to the grid floor (SDL=step-down latency) was measured. When all four of the animal's paws were resting on the floor the continuous 0.2 mA shock started and the time taken by The mouse to remount the wooden cube (EL=escape latency) was measured.
The animals with an SDL of between 3 and 30 sec and with an EL of between 3 and 60 sec were used for retesting.
Immediately afterwards, a transcorneal ECS was applied with the use of the following parameters: amperage 15 mA, frequency 50 Hz, duration of the train of pulses 0.4 sec. duration of each individual pulse 1 msec., interval between pulses 20 msec. As well as the groups treated with ECS, a control group without ECS and a control group with ECS were used.
The retest was carried out after 24 h.
The results are expressed as the percentage variation of the SDL of the treated groups in comparison with the control group by means of this formula: [formula]

[4] = Memory-enhancement activity in the passive avoidance test in the rat; format: in vivo, rat (male Wistar); conditions: rat
Protocol: 2) Memory-enhancement activity in the "passive avoidance" test in the rat
A "passive avoidance" model was used, which required a single "step-through" situation and a retest of the "retention memory" 72 h after the training.
Male Wistar rats which weighed about 200 g and had not fasted, were used. The test consisted of evaluating the degree of memory of an animal after it had been trained as follows.
The equipment used was a shuttle box modified thus: one compartment was lined with black card including the cover, and a 60 W lamp was disposed above the other, spaced from the grid floor by about 40 cm. The two compartments were divided by an automatic guillotine-like door. Each animal was placed in the compartment in the light with the guillotine-likedoor open. From this moment, the time taken by the rat to go into the compartment lined with black card (the dark compartment) (the step-throughlatency=STL) was measured. The animals which took more than 30 sec to go into the dark were discarded. Once they had gone into the dark, the door was lowered automatically and a=0.1 mA shock lasting 5 sec (a foot shock=FS) started. After 10 sec, the animal was removed from the shuttle box.
Upon completion, the animals were selected randomly in homogeneous groups and treated with the products.
The retest to determine memory was made after 72 hours. The products were administered chronically in the preselected manner twice per day and the last treatment 30 min before the retest (6 treatments altogether).
The memory-retention test (the retest) consisted of placing each animal, treated 30 min beforehand with a physiological solution or with the product, in the compartment which was not lined with black card for 30 sec.
The results are expressed as the percentage variation of the STL (in seconds) of the groups treated in comparison with the control group by means of this formula: [formula]

[5] = po, retest 24 h after training, read-out: Reversal of the amnesia (% vs controls), as the increase in the Step Down Latency

| SMILES | IC50 [1] [µM] | inhibition in vivo at 3 mg/kg [2] [%] | inhibition in vivo at 10 mg/kg [2] [%] | inhibition in vivo at 30 mg/kg [2] [%] | ED50 (dose antagonising immobility time by 50%) ([2]; IP) | change in vivo at 3 mg/kg [3, 5] [%] | change in vivo at 30 mg/kg [3, 5] [%] | inhibition in vivo at 1 mg/kg [2] [%] | ED50 ([2]; IP) [mg/kg] | change in vivo at 10 mg/kg [3, 5] [%] | also measured |
| --- | --- | --- | --- | --- | --- | --- | --- | --- | --- | --- | --- |
| CC(C)(C)CCNC(=O)[C@@H](N)CCC(=O)O [Compound 5] | 20.1 | 12 | 32 | 23 | Not Calculable | 10 | 22 |  |  |  | change in vivo at 0.3 mg/kg ([3]; po, 0.3 mg/kg OS, retest 24 h after training, read-out: Reversal of the amnesia (% vs controls), as the increase in the Step Down Latency): 7% |
| N[C@@H](CCC(=O)O)C(=O)NC1CCC2CCCCC2C1 (some centres unmarked) [Compound 11] | 35.7 | 32 | 64 | 19 |  | 3 | 10 | 5 | 13.5 | 0 |  |
| N[C@@H](CCC(=O)O)C(=O)NC12CC3CC(CC(C3)C1)C2 [Compound 14] | 73.3 | 0 | 0 | 21 | Inactive |  |  |  |  |  |  |
| N[C@@H](CCC(=O)O)C(=O)NC1C2CC3CC(C2)CC1C3 (some centres unmarked) [Compound 15] | 132 | 0 | 33 | 75 |  |  |  |  | 15.4 |  |  |
| N[C@@H](CCC(=O)O)C(=O)NCCC12CC3CC(CC(C3)C1)C2 [Compound 16] | 15 | 46 | 77 | 98 |  | 46 | 73 | 15 | 3.9 | 50 | change in vivo at 0.1 mg/kg ([4]; 96 h, 0.1 mg/kg IP, retest on the 4th day, 6 treatments, read-out: % variation vs controls (FS) in step through latency): 11%; change in vivo at 1 mg/kg ([4]; 96 h, 1 mg/kg IP, retest on the 4th day, 6 treatments, read-out: % variation vs controls (FS) in step through latency): 21%; change in vivo at 10 mg/kg ([4]; 96 h, 10 mg/kg IP, retest on the 4th day, 6 treatments, read-out: % variation vs controls (FS) in step through latency): 57%; ED30 ([4]; IP, read-out: ED30 (dose increasing the latency time (STL) by 30%)): 1 mg/kg; Activity in increasing the avoidance time (in words) ([4]; IP, retest on the 4th day): considerable activity in increasing the avoidance time; Activity in inhibiting the binding of glutamate (in words) ([1]; rat cortical membranes): considerable activity in inhibiting the binding of the glutamate; Antidepressant activity (in words) ([2]; IP): antidepressant effect of the same order of magnitude as the comparison drug used, amitriptyline; Antiamnesic activity (in words) ([3]; OS): particularly remarkable; change in vivo at 0.1 mg/kg ([3]; po, 0.1 mg/kg OS, retest 24 h after training, read-out: Reversal of the amnesia (% vs controls), as the increase in the Step Down Latency): 0%; change in vivo at 1 mg/kg ([3]; po, 1 mg/kg OS, retest 24 h after training, read-out: Reversal of the amnesia (% vs controls), as the increase in the Step Down Latency): 47%; ED50 ([3]; po, OS, 60 min before training, read-out: ID50 (antiamnesic activity, dose inhibiting the amnesic effect of the ECS by 50%)): 4.6 mg/kg |
